Laboratory results: ChEMBL document CHEMBL1201862, “PubChem BioAssay data set” (2004)
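Each compound was tested at five concentrations against cells in 96-well plates for 48 hours. At the GI50, growth is halved.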 Active and inactive are the calls of the source. No stated cut-off is given here; in the data, active = GI50 up to about 1.1 µM and inactive = higher.

What was measured:
Assay in all cases: DTP human tumour cell line panel, 48 h
786-0 = tested on: 786-0
A549 = tested on: A549
ACHN = tested on: ACHN
BT-549 = tested on: BT-549
CAKI-1 = tested on: CAKI-1
CCRF-CEM = tested on: CCRF-CEM
COLO 205 = tested on: COLO 205
DU-145 = tested on: DU-145
HCC 2998 = tested on: HCC 2998
HCT-116 = tested on: HCT-116
HCT-15 = tested on: HCT-15
HL-60 = tested on: HL-60
HOP-62 = tested on: HOP-62
HOP-92 = tested on: HOP-92
HT-29 = tested on: HT-29
Hs-578T = tested on: Hs-578T
IGROV-1 = tested on: IGROV-1
KM12 = tested on: KM12
LOX IMVI = tested on: LOX IMVI
M14 = tested on: M14
MCF7 = tested on: MCF7
MDA-MB-231 = tested on: MDA-MB-231
MDA-MB-435 = tested on: MDA-MB-435
MDA-N = tested on: MDA-N
MOLT-4 = tested on: MOLT-4
Malme-3M = tested on: Malme-3M
NCI-H226 = tested on: NCI-H226
NCI-H23 = tested on: NCI-H23
NCI-H460 = tested on: NCI-H460
NCI-H522 = tested on: NCI-H522
NCI/ADR-RES = tested on: NCI/ADR-RES
OVCAR-3 = tested on: OVCAR-3
OVCAR-4 = tested on: OVCAR-4
OVCAR-5 = tested on: OVCAR-5
OVCAR-8 = tested on: OVCAR-8
PC-3 = tested on: PC-3
RPMI-8226 = tested on: RPMI-8226
SF-268 = tested on: SF-268
SF-295 = tested on: SF-295
SF-539 = tested on: SF-539
SK-MEL-28 = tested on: SK-MEL-28
SK-MEL-2 = tested on: SK-MEL-2
SK-MEL-5 = tested on: SK-MEL-5
SK-OV-3 = tested on: SK-OV-3
SN12C = tested on: SN12C
SNB-19 = tested on: SNB-19
SNB-75 = tested on: SNB-75
SR = tested on: SR
SW-620 = tested on: SW-620
T47D = tested on: T47D
TK-10 = tested on: TK-10
U-251 = tested on: U-251
UACC-257 = tested on: UACC-257
UACC-62 = tested on: UACC-62
UO-31 = tested on: UO-31
A498 = tested on: A498
EKVX = tested on: EKVX
K562 = tested on: K562
RXF 393 = tested on: RXF 393

With COC(=O)CCc1ccc2c(c1)CCC2 the GI50 (786-0) was > 100 µM (inactive), the GI50 (A549) was > 100 µM (inactive) and the GI50 (ACHN) was > 100 µM (inactive). The GI50 (BT-549) was > 100 µM (inactive), the GI50 (CAKI-1) was > 100 µM (inactive) and the GI50 (CCRF-CEM) was > 100 µM (inactive). The GI50 (COLO 205) was > 100 µM (inactive), the GI50 (DU-145) was > 100 µM (inactive) and the GI50 (HCC 2998) was > 100 µM (inactive). The GI50 (HCT-116) was > 100 µM (inactive), the GI50 (HCT-15) was > 100 µM and the GI50 (HL-60) was > 100 µM (inactive). For the same compound, the GI50 (HOP-62) was > 100 µM (inactive), the GI50 (HOP-92) was 15.1 µM (inactive) and the GI50 (HT-29) was > 100 µM (inactive). The GI50 (Hs-578T) was > 100 µM (inactive), the GI50 (IGROV-1) was > 100 µM (inactive) and the GI50 (KM12) was > 100 µM (inactive). The GI50 (LOX IMVI) was > 100 µM (inactive), the GI50 (M14) was > 100 µM (inactive) and the GI50 (MCF7) was > 100 µM (inactive). For the same compound, the GI50 (MDA-MB-231) was > 100 µM (inactive), the GI50 (MDA-MB-435) was > 100 µM (inactive) and the GI50 (MDA-N) was > 100 µM (inactive). For the same compound, the GI50 (MOLT-4) was > 100 µM (inactive), the GI50 (Malme-3M) was > 100 µM (inactive) and the GI50 (NCI-H226) was > 100 µM (inactive). The GI50 (NCI-H23) was > 100 µM (inactive), the GI50 (NCI-H460) was > 100 µM (inactive) and the GI50 (NCI-H522) was > 100 µM (inactive). For the same compound, the GI50 (NCI/ADR-RES) was > 100 µM (inactive), the GI50 (OVCAR-3) was > 100 µM (inactive) and the GI50 (OVCAR-4) was > 100 µM (inactive). For the same compound, the GI50 (OVCAR-5) was > 100 µM (inactive), the GI50 (OVCAR-8) was > 100 µM (inactive) and the GI50 (PC-3) was > 100 µM (inactive). The GI50 (RPMI-8226) was > 100 µM (inactive), the GI50 (SF-268) was > 100 µM (inactive) and the GI50 (SF-295) was > 100 µM (inactive). For the same compound, the GI50 (SF-539) was > 100 µM (inactive), the GI50 (SK-MEL-28) was > 100 µM (inactive) and the GI50 (SK-MEL-2) was > 100 µM (inactive). For the same compound, the GI50 (SK-MEL-5) was > 100 µM (inactive), the GI50 (SK-OV-3) was > 100 µM (inactive) and the GI50 (SN12C) was > 100 µM (inactive). For the same compound, the GI50 (SNB-19) was > 100 µM (inactive), the GI50 (SNB-75) was > 100 µM (inactive) and the GI50 (SR) was > 100 µM (inactive). The GI50 (SW-620) was > 100 µM (inactive), the GI50 (T47D) was > 100 µM (inactive) and the GI50 (TK-10) was > 100 µM (inactive). The GI50 (U-251) was > 100 µM (inactive), the GI50 (UACC-257) was > 100 µM (inactive) and the GI50 (UACC-62) was > 100 µM (inactive). The GI50 (UO-31) was > 100 µM (inactive).

With CC(C)(C)OC(=O)NC(Cc1ccc(OC(C)(C)C)cc1)C(=O)N[C@H]1CC[C@H](C(=O)O)C1 (stereo partly drawn) the GI50 (786-0) was > 100 µM (inactive), the GI50 (A498) was > 100 µM (inactive) and the GI50 (A549) was > 100 µM (inactive). The GI50 (ACHN) was > 100 µM (inactive), the GI50 (BT-549) was 45 µM (inactive) and the GI50 (CCRF-CEM) was > 100 µM (inactive). For the same compound, the GI50 (COLO 205) was > 100 µM (inactive), the GI50 (DU-145) was > 100 µM (inactive) and the GI50 (EKVX) was > 100 µM (inactive). For the same compound, the GI50 (HCC 2998) was > 100 µM (inactive), the GI50 (HCT-116) was > 100 µM (inactive) and the GI50 (HCT-15) was > 100 µM. For the same compound, the GI50 (HL-60) was > 100 µM (inactive), the GI50 (HOP-62) was > 100 µM (inactive) and the GI50 (HT-29) was > 100 µM (inactive). For the same compound, the GI50 (Hs-578T) was > 100 µM (inactive), the GI50 (IGROV-1) was > 100 µM (inactive) and the GI50 (K562) was > 100 µM (inactive). For the same compound, the GI50 (KM12) was > 100 µM (inactive), the GI50 (LOX IMVI) was > 100 µM (inactive) and the GI50 (M14) was > 100 µM (inactive). The GI50 (MCF7) was > 100 µM (inactive), the GI50 (MDA-MB-231) was > 100 µM (inactive) and the GI50 (MDA-MB-435) was > 100 µM (inactive). For the same compound, the GI50 (MDA-N) was > 100 µM (inactive), the GI50 (MOLT-4) was > 100 µM (inactive) and the GI50 (NCI-H226) was > 100 µM (inactive). The GI50 (NCI-H23) was > 100 µM (inactive), the GI50 (NCI-H460) was > 100 µM (inactive) and the GI50 (NCI-H522) was > 100 µM (inactive). The GI50 (NCI/ADR-RES) was > 100 µM (inactive), the GI50 (OVCAR-5) was > 100 µM (inactive) and the GI50 (OVCAR-8) was > 100 µM (inactive). The GI50 (PC-3) was 89.1 µM (inactive), the GI50 (RPMI-8226) was > 100 µM (inactive) and the GI50 (SF-268) was > 100 µM (inactive). The GI50 (SF-295) was > 100 µM (inactive), the GI50 (SF-539) was > 100 µM (inactive) and the GI50 (SK-MEL-28) was > 100 µM (inactive). The GI50 (SK-MEL-2) was > 100 µM (inactive), the GI50 (SK-MEL-5) was > 100 µM (inactive) and the GI50 (SK-OV-3) was > 100 µM (inactive). For the same compound, the GI50 (SN12C) was > 100 µM (inactive), the GI50 (SNB-19) was > 100 µM (inactive) and the GI50 (SNB-75) was > 100 µM (inactive). For the same compound, the GI50 (SR) was > 100 µM (inactive), the GI50 (SW-620) was > 100 µM (inactive) and the GI50 (T47D) was > 10 µM (inactive). The GI50 (TK-10) was > 100 µM (inactive), the GI50 (U-251) was > 100 µM (inactive) and the GI50 (UACC-257) was > 100 µM (inactive).

For CSc1ncnc2c1ncn2C1OC(CO)C(O)OC1O (stereo not drawn), the GI50 (786-0) was 0.785 µM (active), the GI50 (A498) was 1.11 µM (active) and the GI50 (A549) was 0.662 µM (active). For the same compound, the GI50 (ACHN) was 0.643 µM (active), the GI50 (BT-549) was 1.83 µM (inactive) and the GI50 (CAKI-1) was 2.58 µM (inactive). For the same compound, the GI50 (CCRF-CEM) was 0.0579 µM (active), the GI50 (COLO 205) was 1.8 µM (inactive) and the GI50 (DU-145) was 0.697 µM (active). For the same compound, the GI50 (EKVX) was 0.624 µM (active), the GI50 (HCT-116) was 0.4 µM (active) and the GI50 (HCT-15) was 0.506 µM. For the same compound, the GI50 (HL-60) was 1.97 µM (inactive), the GI50 (HOP-62) was 3.7 µM (inactive) and the GI50 (HOP-92) was 0.822 µM (active). The GI50 (HT-29) was 0.449 µM (active), the GI50 (Hs-578T) was 20.9 µM (inactive) and the GI50 (IGROV-1) was 0.897 µM (active). For the same compound, the GI50 (K562) was 1.16 µM (inactive), the GI50 (KM12) was 0.789 µM (active) and the GI50 (LOX IMVI) was 0.361 µM (active). For the same compound, the GI50 (M14) was 1.14 µM (inactive), the GI50 (MCF7) was 0.262 µM (active) and the GI50 (MDA-MB-231) was 0.396 µM (active). The GI50 (MDA-MB-435) was 1.7 µM (inactive), the GI50 (MDA-N) was 2.24 µM (inactive) and the GI50 (MOLT-4) was 0.281 µM (active). The GI50 (Malme-3M) was 14 µM (inactive), the GI50 (NCI-H23) was 0.721 µM (active) and the GI50 (NCI-H460) was 0.424 µM (active). The GI50 (NCI-H522) was 3.34 µM (inactive), the GI50 (NCI/ADR-RES) was 2.56 µM (inactive) and the GI50 (OVCAR-3) was 0.348 µM (active). The GI50 (OVCAR-4) was 10.7 µM (inactive), the GI50 (OVCAR-5) was 2.01 µM (inactive) and the GI50 (OVCAR-8) was 2.12 µM (inactive). For the same compound, the GI50 (PC-3) was 2.26 µM (inactive), the GI50 (RPMI-8226) was 1.06 µM (active) and the GI50 (RXF 393) was 11.7 µM (inactive). For the same compound, the GI50 (SF-268) was 7.69 µM (inactive), the GI50 (SF-295) was 13.6 µM (inactive) and the GI50 (SF-539) was 1.73 µM (inactive). For the same compound, the GI50 (SK-MEL-28) was 13.7 µM (inactive), the GI50 (SK-MEL-2) was 2.76 µM (inactive) and the GI50 (SK-MEL-5) was 3.73 µM (inactive). The GI50 (SK-OV-3) was 20 µM (inactive), the GI50 (SN12C) was 1.06 µM (active) and the GI50 (SNB-19) was 10.7 µM (inactive). The GI50 (SNB-75) was 10.9 µM (inactive), the GI50 (SR) was 0.619 µM (active) and the GI50 (SW-620) was 1.51 µM (inactive). The GI50 (T47D) was 0.612 µM (active), the GI50 (TK-10) was 0.219 µM (active) and the GI50 (U-251) was 9.35 µM (inactive). The GI50 (UACC-257) was 0.902 µM (active), the GI50 (UACC-62) was 2.96 µM (inactive) and the GI50 (UO-31) was 1.79 µM (inactive).
